A word on the TGI: it is the concentration at which net growth stops.

Consider six compounds from PubChem BioAssay (NCI).

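1) Cells in 96-well plates. 2) Compound, 48 h, 5 concentrations. 3) Linear interpolation between surrounding doses. 4) Unreached endpoint = highest concentration. At the TGI there is no net growth.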 *1 amine or outer side, *2 acyl side, *3 side chain or, on linkers, in order; H or OH if unused. Where a SMILES comes first, the peptide text is derived from it. [ ]: non-standard residue; d: D form. The star is where a group is joined. ξ: configuration not given here. X27 = O=C([C@H]1CCC[C@H]1N[*:1])[*:2]; ξW = NC(Cc1c[nH]c2ccccc12)C(=O)O; ξF = NC(Cc1ccccc1)C(=O)O; Boc = CC(C)(C)OC(=O)*; ξK = NCCCCC(N)C(=O)O; ξT = CC(O)C(N)C(=O)O; tBu = CC(C)(C)* Bounds are passed on as bounds.

Holding throughout (assay): DTP human tumour cell line panel, 48 h
Experiment [1] relates to 786-0 renal.
The subject of experiment [2] is HCT-116 colon.
The test system of experiment [3] is EKVX NSCLC.
Experiment [4] has as its system A549 NSCLC.
Experiment [5] relates to COLO 205 colon.
For experiment [6], the system named is U251 CNS.
Experiment [7] relates to HOP-62 NSCLC.
Experiment [8] deals with HCC-2998 colon.
Experiment [9] deals with SNB-75 CNS.
Experiment [10] has as its system HL-60(TB) leukemia.
For experiment [11], the system named is HT29 colon.
In experiment [12] the test system is UACC-257 melanoma.
The subject of experiment [13] is OVCAR-4 ovarian.
Experiment [14] relates to RPMI-8226 leukemia.
The test system of experiment [15] is SK-OV-3 ovarian.
The test system of experiment [16] is MALME-3M melanoma.
In experiment [17] the test system is DU-145 prostate.
Experiment [18] has as its system SF-539 CNS.
For experiment [19], the system named is UO-31 renal.
The subject of experiment [20] is MDA-MB-231 breast.

Consider `CC(=O)Nc1ccc(NS(=O)(=O)c2ccc3nc(C)n(NS(=O)(=O)c4ccc(NC(C)=O)cc4)c(=O)c3c2)cc1`, for which the total growth inhibition concentration (TGI) in experiment [1], in [2], in experiment [3], in [4], in experiment [5] and in experiment [6] was over 100 µM each time. The TGI in experiment [7], in experiment [8], in [9], in [10], in experiment [11] and in [12] was over 100 µM throughout. Also, the TGI in [13], in [14], in experiment [15], in experiment [16], in experiment [17] and in experiment [18] was over 100 µM each time. In addition, the TGI in [19] and in [20] was over 100 µM throughout.

For `Cc1sc2[nH]c(=O)oc(=O)c2c1C`, the concentration for total growth inhibition (TGI) in [1], in experiment [2], in experiment [3], in experiment [4], in [5] and in experiment [6] was over 100 µM throughout. Besides, the TGI in experiment [7], in [8], in [9], in [10], in experiment [11] and in experiment [12] was over 100 µM throughout. For the same compound, the TGI in experiment [13], in experiment [14], in [15], in [16], in experiment [17] and in experiment [18] was over 100 µM each time. Besides, the figures for the TGI in experiment [19] and in [20] were over 83.3 µM and over 100 µM, respectively.

With `CN(C)CCCC1c2ccccc2Oc2ccc(C(F)(F)F)cc21` (stereo not given), the TGI in [1] is 26.7 µM; in [2], 25.6 µM; in experiment [3], 31.3 µM; in [4], 29.8 µM; in experiment [5] it was 17.7 µM; in experiment [6] it was 23.9 µM. The TGI turned out to be 31 µM in experiment [7]; 4.97 µM in experiment [8]; 27.7 µM in experiment [9]; 28.1 µM in [10]; 18.9 µM in [11]; 26.5 µM in [12]. In addition, the TGI was 28.3 µM in [13]; 25.3 µM in experiment [14]; 30.7 µM in [15]; 15.8 µM in experiment [16]; 31.1 µM in experiment [17]; 29.5 µM in experiment [18]. The results for the TGI in experiment [19] and in experiment [20] were 6.49 µM and 26 µM, respectively.

Consider `CC1(C)CC(O)C2=C(O1)C(=O)c1ncccc1C2=O` (stereo not given), for which the TGI is 3.62 µM in [1]; 5.76 µM in [2]; 6.76 µM in experiment [3]; 23.4 µM in experiment [4]; 4.89 µM in experiment [5]; 3.21 µM in experiment [6]. Further, the total growth inhibition concentration (TGI) in experiment [7] turned out to be 3.38 µM; in experiment [8] it was 14.6 µM; in experiment [9], 2.1 µM; in experiment [10] it was 4.15 µM; in experiment [11], 35.8 µM; in [12] it was 3.19 µM. In addition, the concentration for total growth inhibition (TGI) in experiment [13] was 3.15 µM; in [14], over 22.6 µM; in experiment [15], 27.4 µM; in experiment [16], 3.17 µM; in [17], 10 µM; in experiment [18], 3.28 µM. Further, the concentration for total growth inhibition (TGI) in experiment [19] was 4.34 µM; in [20], 5.92 µM.

As to `O=[N+]([O-])c1ccc2nc(Cl)n[n+]([O-])c2c1`, the concentration for total growth inhibition (TGI) in [1] stood at 22.8 µM; in experiment [2], 25.8 µM; in experiment [3], 39 µM; in experiment [4] it was 42.6 µM; in experiment [5], 25.2 µM; in [6], 31.3 µM. The TGI in experiment [7] is 30.9 µM; in experiment [8], 30.3 µM; in experiment [9], 28.2 µM; in [10], 1.36 µM; in [11] it was 49.1 µM; in experiment [12], 29.3 µM. Besides, the concentration for total growth inhibition (TGI) stood at 26.8 µM in experiment [13]; 9.1 µM in experiment [14]; 31.4 µM in [15]; 29.5 µM in experiment [16]; 31.7 µM in experiment [17]; 25.3 µM in experiment [18]. For the same compound, the total growth inhibition concentration (TGI) in experiment [19] was 30.7 µM; in experiment [20], 28.3 µM.

In the case of `CC(OC(C)(C)C)C1NC(=O)C(CCCCNC(=O)OC(C)(C)C)NC(=O)C(Cc2c[nH]c3ccccc23)NC(=O)C(Cc2ccccc2)NC(=O)[C@H]2CCC[C@H]2NC(=O)C(Cc2ccccc2)NC1=O` (stereo not given in full) (cyclo([X27][ξF][ξW][ξK](Boc)[ξT](tBu)[ξF])), the total growth inhibition concentration (TGI) in [1], in experiment [2], in experiment [3], in [4], in experiment [5] and in experiment [6] was over 100 µM each time. The TGI in experiment [7] is over 100 µM; in [8] it was over 100 µM; in experiment [9], over 100 µM; in experiment [10] it was over 100 µM; in [11], over 100 µM; in [12] it was 33.5 µM. In addition, the TGI in [13], in experiment [14], in [15], in experiment [16], in experiment [17] and in [18] was over 100 µM each time. Further, the total growth inhibition concentration (TGI) in experiment [19] and in [20] was over 100 µM each time.
